The text below walks through data of patent US4308256A, “Method of inducing analgesia” (American Home Products Corporation, priority 1980, dated 1981).

Bridge positions count the residues as written; N and C are the ends. Square brackets hold non-standard residues; d marks the D form. Peptide text beside a SMILES is read from it. * marks the point of attachment. Ileψ(thiazoline)Cys = CC[C@H](C)[C@H](N)C1=N[C@H](C(=O)*)CS1; dOrn = NCCC[C@@H](N)C(=O)O

In one assay the test system is aminopeptidase. As to conditions: cited from earlier work.
The subject of a further assay is rats. The following applies: fully reversible by naloxone; cited from earlier work.
The test system of another assay is male Charles River rats. Put plainly: D'Amour-Smith rat tail-flick procedure (radiant heat, 8 second cut-off), intraventricular injection. It counts as in vivo. The following applies: for Tail-flick latency: leucine-enkephalin intraventricular. How it is done: Intraventricular cannulae, made of 27-gauge stainless steel tubing, are implanted in 300-400 g. male Charles River rats under pentobarbital anesthesia. After a recovery period of at least one week, the rats are restrained in a wire-mesh cylindrical chamber so that the tip of the tail can be positioned at the focal point of a radiant heat source. After an acclimatistation period of 5 minutes, the lamp is turned on and an electric clock activated. Movement of the tip of the tail exposes a photocell to the lamp, which turns off the thermal stimulus and stops the clock. If a rat fails to move its tail within 8 seconds, the heat is automatically turned off to prevent blistering. The intensity of the lamp is adjusted in each case to produce at least three baseline tail-flick latencies of 2.5-4.5 seconds. Tests are initially made every 2 minutes, then every 5 minutes and finally every 15 minutes.
Initially, using the above outlined procedure, the effects of intraventricularly administered leucine-enkephalin are tested in rats according to the above procedure.
The rat tail flick procedure is repeated, first by the simultaneous intraventricular injection of both leucine-enkephalin and bestatin and then by the initial injection of bestatin followed one hour later by the injection of leucine-enkephalin.
The above procedure is repeated again, however, the bestatin is administered first and then one hour later the leucine-enkephalin is administered.
The effects of bestatin alone are tested in rats according to the rat tail flick procedure.
A general note: Hot-plate and tail-flick tests time the reaction to a heat stimulus.

Where [1] appears, read: exogenously (intraventricularly) administered leucine-enkephalin alone, rats.

With `CC[C@H](C)[C@H](N)C1=N[C@H](C(=O)N[C@@H](CC(C)C)C(=O)N[C@H](CCC(=O)O)C(=O)N[C@H](C(=O)N[C@H]2CCCCNC(=O)[C@H](CC(N)=O)NC(=O)[C@@H](CC(=O)O)NC(=O)[C@H](Cc3cnc[nH]3)NC(=O)[C@@H](Cc3ccccc3)NC(=O)[C@H]([C@@H](C)CC)NC(=O)[C@@H](CCCN)NC2=O)[C@@H](C)CC)CS1` [bacitracin] ({Ileψ(thiazoline)Cys}-L[dE]IK[dOrn]I[dF]H[dD]N; lactam 4-C), in the assay on aminopeptidase, the “Inhibition of "aminopeptidase"-catalyzed breakdown of enkephalins” value is on record as “effective inhibitors”.
Consider `CC(C)C[C@H](NC(=O)[C@H](Cc1ccccc1)NC(=O)CNC(=O)CNC(=O)[C@@H](N)Cc1ccc(O)cc1)C(=O)O` [leucine-enkephalin, H-Tyr-Gly-Gly-Phe-Leu-OH, reference compound], for which the “Analgesia after injection into the brain ventricle” value in the assay with rats was “profound analgesia”. Besides, the “Time after which the effect dissipates rapidly” value in the assay on male Charles River rats (setting [1]) was 10 to 12 min. In the assay with male Charles River rats (setting [1]), the “Time to peak analgesic effect” value was in the range of 6 to 8 min. The Tail-flick latency in the assay on male Charles River rats (Rat 1, 2 min) was found to be 8.00 s; with male Charles River rats (Rat 1, 4 min), 8.00 s; with male Charles River rats (Rat 1, 6 min), 8.00 s; in the assay on male Charles River rats (Rat 1, 8 min), 8.00 s; in the assay with male Charles River rats (Rat 1, 10 min), 6.15 s; with male Charles River rats (Rat 1, 12 min), 5.76 s. Further, the Tail-flick latency turned out to be 2.69 s with male Charles River rats (Rat 1, 14 min); 8.00 s in the assay with male Charles River rats (Rat 2, 2 min); 8.00 s in the assay on male Charles River rats (Rat 2, 4 min); 5.11 s in the assay on male Charles River rats (Rat 2, 6 min); 4.24 s in the assay with male Charles River rats (Rat 2, 8 min); 3.48 s in the assay with male Charles River rats (Rat 2, 10 min). The Tail-flick latency stood at 4.15 s in the assay on male Charles River rats (Rat 2, 12 min); 4.88 s with male Charles River rats (Rat 3, 2 min); 8.00 s with male Charles River rats (Rat 3, 4 min); 7.50 s in the assay on male Charles River rats (Rat 3, 6 min); 8.00 s in the assay with male Charles River rats (Rat 3, 8 min); 4.50 s in the assay on male Charles River rats (Rat 3, 10 min). Moreover, the Tail-flick latency in the assay with male Charles River rats (Rat 3, 12 min) came to 3.49 s; with male Charles River rats (Rat 3, 14 min) it was 3.04 s; with male Charles River rats (Rat 4, 2 min) it was 6.47 s; in the assay on male Charles River rats (Rat 4, 4 min), 6.97 s; with male Charles River rats (Rat 4, 6 min), 6.62 s; in the assay on male Charles River rats (Rat 4, 8 min) it was 7.17 s. The Tail-flick latency in the assay with male Charles River rats (Rat 4, 10 min) was determined as 6.81 s; with male Charles River rats (Rat 4, 12 min), 7.52 s; with male Charles River rats (Rat 4, 14 min), 3.06 s.
`COc1ccc(C[C@H](N)C(=O)N[C@H]2[C@@H](O)[C@H](n3cnc4c(N(C)C)ncnc43)O[C@@H]2CO)cc1` [puromycin]: the “Inhibition of "aminopeptidase"-catalyzed breakdown of enkephalins” value in the assay on aminopeptidase is recorded as “effective inhibitors”.
As to “H-Tyr-Gly-Gly-Phe-Met-OH [methionine-enkephalin]”, the “Analgesia after injection into the brain ventricle” value in the assay on rats is reported as “profound analgesia”.
